In patent US5418135A, “Method of inhibiting binding of PDGF to a PDGF receptor by biosynthetic PDGF antagonists” (Creative BioMolecules, Inc., priority 1993, dated 1995):

Tested on: PDGF receptor on human foreskin fibroblasts / NIH/3T3 cells
Test: Inhibition assay: 3H-thymidine incorporation in cells stimulated with PDGF dimer
Assay type: cell-based
Procedure: One method includes the determination of ^3 H-thymidine incorporation in a cell which normally is induced to proliferate in the presence of PDGF, but which simultaneously is exposed to the prospective antagonist and to biologically active PDGF.
Human foreskin fibroblasts are grown from explants of newborn foreskin. NIH/3T3 cells were obtained from S. Aaronson (NCI). Cells are cultured in Dulbecco's modified Eagle's medium (DMEM) supplemented with 10% fetal bovine serum at 37° C. in an atmosphere of 10% CO2 and 90% air.
Cells are grown in 48-well plates to confluence and used for assay 3-4 days later. Different monomeric forms or fragments of PDGF monomers are added to the media, and after 18 hours 10 .xi.g PDGF AA dimer, AB dimer, or BB dimer and 2 .xi.Ci/ml ^3 H-thymidine are added. The cells are incubated an additional 2 hours and washed at 4° C. three times with phosphate-buffered saline (PBS) and five times with 5% trichloroacetic acid (TCA). TCA-insoluble materials are solubilized in 0.1N NaOH/0.1% SDS. The amount of incorporated ^3 H-thymidine is determined with a Beckman liquid scintillation counter.

With “A: Intact recombinant PDGF A chain monomer from E. coli, Cys residues pyridylethylated to prevent dimerization” the “inhibition of the proliferative effect of BB dimer (in words)” value (PDGF BB dimer as stimulus) was “inhibit the proliferative effect of BB dimer” and the IC50 (inhibition of PDGF dimer-induced 3H-thymidine incorporation, antagonist added 18 hours before PDGF dimer and 3H-thymidine, read-out: HALF-MAX INHIBITION) was 100 nM.
